Here are results for six compounds from PubChem BioAssay (NCI).

Holding throughout (assay): NCI tumour cell line growth inhibition, 48 h
The test system of test [1] is UO-31 renal.
Test [2] deals with NCI/ADR-RES ovarian.
Test [3] concerns HCC-2998 colon.
The test system of test [4] is COLO 205 colon.
Test [5] concerns SF-539 CNS.
For test [6], the system named is ACHN renal.
Test [7] relates to KM12 colon.
Test [8] concerns SNB-75 CNS.
The test system of test [9] is MOLT-4 leukemia.
Test [10] deals with CAKI-1 renal.

Where “and” joins values, the source holds several entries; their conditions need not be identical. Equal entries are not always repeated.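 Each compound was tested at five concentrations against cells in 96-well plates for 48 hours. GI50 = concentration required for 50% inhibition of growth. The concentration for full growth arrest is given as TGI.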

Take `C[C@H]1CCC/C=C/[C@@H]2C[C@H](O)C[C@H]2[C@H](O)/C=C/C(=O)O1`: the GI50 in test [1] is 0.0301 µM; in [2] it was 0.0476 µM; in test [3], 0.0623 µM and 0.054 µM; in test [5] it was 0.0321 µM; in test [6], 0.0354 µM and 0.0938 µM and 0.0626 µM; in [7], 0.0197 µM. Besides, the GI50 in test [8] is 0.0185 µM; in test [9], < 0.0165 µM and 0.0481 µM and 0.0564 µM; in test [10], 0.0227 µM and 0.0545 µM and 0.0438 µM. Moreover, the TGI in test [1] is 0.0655 µM and 0.492 µM; in test [3] it was 0.674 µM and 0.322 µM; in [4], < 0.01 µM and 0.0354 µM; in test [6] it was 1.39 µM and 2.36 µM; in test [10] it was 0.0596 µM and 0.199 µM and 0.36 µM.
With `N=C(N)c1ccc(N=Nc2c(O)ccc3cc4c(N=Nc5ccc(C(=N)N)cc5)c(O)ccc4cc23)cc1`, the TGI in test [1], in test [2], in [3], in test [4], in [5] and in [6] was more than 100 µM throughout. Further, the TGI in test [7], in test [8], in [9] and in [10] was more than 100 µM throughout.
For `COC(=O)c1ccc2c(c1)sc1nc(-c3ccc(OC)cc3)cn12`, the TGI in test [1], in test [2], in test [3], in [4], in test [5] and in test [6] was more than 100 µM throughout. The TGI in test [7], in test [8], in test [9] and in test [10] was more than 100 µM in each case.
With `CCOC(=O)/C(=C\NC(C)(C)CO)c1nc2ccccc2[nH]1`, the TGI in test [1] is 11.7 µM; in [2] it was more than 100 µM; in test [3], more than 100 µM; in test [4], more than 100 µM; in test [5] it was more than 100 µM; in test [6], 97.5 µM. Further, the TGI in test [7], in test [8], in test [9] and in test [10] was more than 100 µM in each case.
`Cc1cc2c(cc1Cl)SC(c1ccccc1O)NS2(=O)=O` (centres undefined): the TGI is more than 100 µM in test [1]; more than 100 µM in test [2]; more than 100 µM in [3]; 69 µM in test [4]; more than 100 µM in [5]; more than 100 µM in test [6]. The TGI in test [7], in test [8], in [9] and in test [10] was more than 100 µM in each case.
Consider `O=C(O)CCCN=C(C1=C(O)C(=O)N(c2ccccc2)C1=O)c1ccccc1`, for which the TGI in test [1], in test [2], in test [3], in test [4], in test [5] and in test [6] was more than 100 µM each time. The TGI in [7], in test [8], in test [9] and in [10] was more than 100 µM each time.
